Patent publication EP4667582A1, “FACTOR XA REAGENT” (Instrumentation Laboratory Company, priority 2024, dated 2025)
Structures can show the parent of a compound that is named as a salt.

Key:
Assay type in all cases: biochemical
factor Xa [1] = experiment: factor Xa chromogenic assay with guanidine derivatives (substrate S-2732, mAbs/min at 405 nm); details: for factor Xa inhibition: Fig. 4, dilutions in water, 6nkat/mL factor Xa, 20mM HEPES pH 7.5, 1.5 mM S-2732, ranking between compounds; for factor Xa activity: Fig. 3, activity plotted against guanidine derivative or NaCl concentration, 6 nkat/mL factor Xa, 20mM Hepes pH 7.5, 37°C, 1.5mM S-2732
Experimental: In this experiment, activity of factor Xa in the presence of guanidine sulfate and its derivatives (e.g., 1-methylguanidine sulfate, 1,1-dimethylguanidine sulfate, 1,1-diethylguanidine, N-benzyl, N-methylguanidine sulfate, 1,1,3,3-tetramethylgunidine and 1,1-dimethylbiguanide HCl) was evaluated using a chromogenic assay. In the experiment, each guanidine derivative was dissolved in deionized (DI) water to a final concentration of 100mM. A number of such guanidine dilutions were prepared. Guanidine derivative levels in the solutions were tested in triplicate at 37°C as follows: 40µL (microliters) of each guanidine derivative level was incubated for 20 seconds (s) to 60s before 40µL of 6 nkat/mL factor Xa in 20mM Hepes pH 7.5 buffer was added to the reaction. After an incubation period of 150s to 180s, 100µL of 1.5mM factor Xa chromogenic substrate S-2732™ was added to the reaction and milli-absorbance per minute (mAbs/min) at 405nm (nanometers) was measured after a 20s delay.
In this experiment, the effects of guanidine sulfate and the guanidine derivatives: 1-methylguanidine sulfate, 1,1-dimethylguanidine sulfate, 1,1-diethylguanidine, and N-benzyl, N-methylguanidine sulfate were analyzed using a chromogenic assay. A number of dilutions were prepared in water with guanidine or a guanidine derivative of the type described herein. 40µL of each of the guanidine or guanidine derivatives were mixed for 20s to 60s with 40µL of 6nkat/mL factor Xa diluted in 20mM HEPES, pH 7.5 buffer. After an incubation period of 150s to 180s, 100µL of the factor Xa chromogenic substrate S-2732™ (1.5 mM) was added to each of the guanidine and factor Xa mixtures and each mixture was chromogenically measured at 405nm mAbs/min after a 20s delay.

factor Xa [2] = experiment: factor Xa chromogenic activity in plasma sample containing dimethylguanidine (9:1 sample to factor Xa ratio); details: Fig. 7, 50mM compared to 25mM dimethylguanidine, 1.5 mM S-2732, 37°C
Experimental: In this experiment, 180µL of a plasma sample containing dimethylguanidine (DMG) and 1.5 mM substrate S-2732™ were mixed with 20µL of factor Xa (a 9:1 sample to factor Xa ratio). The activity of factor Xa was determined at 37°C based on chromogenic activity of the substrate. The activity of factor Xa linearly correlates with the factor Xa concentration in the presence of dimethylguanidine. […] Thus, increasing the amount of dimethylguanidine in a sample reduces a rate of the reaction. In some implementations, dimethylguanidine can be added to a reaction at a concentration of up to about 500mM.

factor Xa [3] = experiment: factor Xa substrate turnover rates at a range of factor Xa levels, 1,1-dimethylguanidine compared to NaCl; details: Fig. 6; 22mM 1,1-dimethylguanidine compared to 33 mM NaCl; 37°C, 1.5mM S-2732
Experimental: Guanidine derivatives modulate factor Xa enzymatic activity in a reaction, as explained previously, thereby slowing-down the reaction. As a result, greater amounts and/or concentrations of factor Xa can be used in a reaction when a guanidine derivative is incorporated into the reaction. In this experiment, factor Xa levels were tested in a reaction in triplicate at 37°C as follows: 40µL of factor Xa was incubated for 20s to 60s before 40µL of 100mM 1,1-dimethylguanidine or 150mM NaCl in water was added to the reaction. After an incubation period of 150s to 180s, 100µL of 1.5mM factor Xa chromogenic substrate S-2732™ was added to the reaction and mAbs/min at 405 nm was measured after a 20s delay. In Fig. 6, substrate turnover rates (e.g., coloring of the substrate) in the presence of 22mM 1,1-dimethylguanidine 601 were compared to substrate turnover rates in the presence of 33 mM NaCl 602. As evident from Fig. 6, greater amounts and/or concentrations of factor Xa can be added to the reaction in the presence of 1,1-dimethylguanidine to produce the same substrate turnover rates relative to NaCl. […] Greater amounts and/or concentrations of factor Xa facilitate detection of factor Xa inhibitors or reversal of such inhibitors in an assay, as noted previously.

| Molecule | factor Xa inhibition (factor Xa [1]) | factor Xa activity (factor Xa [1]) | other results |
| --- | --- | --- | --- |
| CCN(CC)C(=N)N.O=S(=O)(O)O [1,1-diethylguanidine sulfate] | largest extent of factor Xa inhibition |  |  |
| CN(C)C(=N)NC(=N)N [1,1-dimethyl-biguanide, reference compound] |  | modulate factor Xa dose-dependently, although less than 1-methylated guanidine sulfate |  |
| CN(C)C(=N)N.O=S(=O)(O)O [1,1-dimethylguanidine sulfate] | largest extent of factor Xa inhibition |  |  |
| CN(C)C(=N)N [1,1-dimethylguanidine] |  |  | rate of the reaction (activity of factor Xa) (factor Xa [2]): slows reaction of the factor Xa in a sample greater than 25mM; substrate turnover rates (factor Xa [3]): the reaction has been slowed-down |
| CNC(=N)N [1-methylguanidine sulfate] | reduced factor Xa inhibition as compared to the factor Xa inhibition of mixtures containing dialkylated guanidine derivatives | modulates factor Xa dose-dependently |  |
| CN(Cc1ccccc1)C(=N)N.O=S(=O)(O)O [N-benzyl N-methylguanidine sulfate] | reduced factor Xa inhibition as compared to the factor Xa inhibition of mixtures containing dialkylated guanidine derivatives |  |  |
| N=C(N)N [guanidine sulfate] | least amount of reduction in factor Xa inhibition | modulate factor Xa dose-dependently, although less than 1-methylated guanidine sulfate |  |
| NaCl [reference compound] |  | activates factor Xa activity |  |
